Where two headings read alike, the source gives them in different places.
What was measured:
Type in all cases: cell-based
[1] = tested on: BT-549; experiment: CellTiter-Glo Viability Assay, breast cancer; details: Homo sapiens, BT-549, 96 h
Experimental: (§1) Fifty-one human cancer cell lines (breast cancer (8 cell lines), colorectal cancer (6 cell lines), haematopoietic & lymphoid tumors (13 cell lines), liver cancer (3 cell lines), lung cancer (4 cell lines), ovarian cancer (4 cell lines), pancreatic cancer (8 cell lines), and prostate cancer (5 cell lines)) were tested to determine the effects of representative compounds of Formulas (I)-(XII) on cellular proliferation, as evaluated using the CellTiter-Glo® Viability Assay.
(§2) For the Cell Viability Assays, cells were plated at 300-3,000 cells/well in 384-well plates in their respective media containing 1% Penicillin-Streptomycin and incubated for four days at 37° C. and 5% CO2. Twenty-eight replicates of DMSO-treated cells served as controls and cells treated with compound were performed in duplicate.
(§3) After incubation, 10 μL of CellTiter-Glo® (Promega) was added to each well allowed to incubate for approximately 12 minutes. This reagent results in cell lysis and generation of a luminescent signal proportional to the amount of ATP present. The amount of ATP is directly proportional to the number of metabolically active, viable cells present in culture. The CellTiter-Glo® Assay generates a luminescent signal, produced by the luciferase reaction (Promega.com).
(§4) After incubation, the luminescence signal was read using an EnVision™ Multilabel Plate Reader (Perkin Elmer). Dose-response curves were generated and EC50 concentration values were calculated using Dotmatics' Studies Software (Bishops Stortford, UK).

[2] = tested on: CAMA1; experiment: CellTiter-Glo Viability Assay, breast cancer; details: Homo sapiens, CAMA-1, 96 h
Experimental: as §1, §2, §3, §4

[3] = tested on: DU4475; experiment: CellTiter-Glo Viability Assay, breast cancer; details: Homo sapiens, DU-4475, 96 h
Experimental: as §1, §2, §3, §4

[4] = tested on: HCC1599; experiment: CellTiter-Glo Viability Assay, breast cancer; details: Homo sapiens, HCC1599, 96 h
Experimental: as §1, §2, §3, §4

[5] = tested on: MCF7; experiment: CellTiter-Glo Viability Assay, breast cancer; details: Homo sapiens, MCF7, 96 h
Experimental: as §1, §2, §3, §4

[6] = tested on: MDA-MB-231-Luc; experiment: CellTiter-Glo Viability Assay, breast cancer; details: Homo sapiens, 96 h
Experimental: as §1, §2, §3, §4

[7] = tested on: T47D; experiment: CellTiter-Glo Viability Assay, breast cancer; details: Homo sapiens, 96 h
Experimental: as §1, §2, §3, §4

[8] = tested on: ZR-75-1; experiment: CellTiter-Glo Viability Assay, breast cancer; details: Homo sapiens, ZR-75-1, 96 h
Experimental: as §1, §2, §3, §4

[9] = tested on: colorectal cancer (6 cell lines); experiment: CellTiter-Glo Viability Assay, colorectal cancer; details: Homo sapiens
Experimental: as §1, §2, §3, §4

[10] = tested on: haematopoietic & lymphoid tumors (13 cell lines); experiment: CellTiter-Glo Viability Assay, haematopoietic & lymphoid tumors; details: Homo sapiens
Experimental: as §1, §2, §3, §4

[11] = tested on: liver cancer (3 cell lines); experiment: CellTiter-Glo Viability Assay, liver cancer; details: Homo sapiens
Experimental: as §1, §2, §3, §4

[12] = tested on: lung cancer (4 cell lines); experiment: CellTiter-Glo Viability Assay, lung cancer; details: Homo sapiens
Experimental: as §1, §2, §3, §4

[13] = tested on: ovarian cancer (4 cell lines); experiment: CellTiter-Glo Viability Assay, ovarian cancer; details: Homo sapiens
Experimental: as §1, §2, §3, §4

[14] = tested on: pancreatic cancer (8 cell lines); experiment: CellTiter-Glo Viability Assay, pancreatic cancer; details: Homo sapiens
Experimental: as §1, §2, §3, §4

[15] = tested on: prostate cancer (5 cell lines); experiment: CellTiter-Glo Viability Assay, prostate cancer; details: Homo sapiens
Experimental: as §1, §2, §3, §4

CN1CCN(c2cc(C(=O)Nc3cc4cc(-c5cnn(C)c5)ccc4cn3)ccn2)CC1 [Compound 12]
EC50 [1]: 231 nM
EC50 [2]: 347 nM
EC50 [3]: 182 nM
EC50 [4]: 103 nM
EC50 [5]: 600 nM
EC50 [6]: 304 nM
EC50 [7]: 427 nM
EC50 [8]: 361 nM
EC50 ([9]; DLD-1, read-out: Colorectal cancer, EC50 (μM) DLD-1): 0.183 µM
EC50 ([9]; HCT-116, read-out: Colorectal cancer, EC50 (μM) HCT116): 0.138 µM
EC50 ([9]; HT-29, read-out: Colorectal cancer, EC50 (μM) HT29): 0.291 µM
EC50 ([9]; SW48, read-out: Colorectal cancer, EC50 (μM) SW48): 0.09 µM
EC50 ([9]; SW480, read-out: Colorectal cancer, EC50 (μM) SW480): 0.159 µM
EC50 ([9]; SW-620, read-out: Colorectal cancer, EC50 (μM) SW620): 0.114 µM
EC50 ([10]; DND41, read-out: Haematopoietic & Lymphoid tumors, EC50 (μM) DND-41): 0.208 µM
EC50 ([10]; HL-60, read-out: Haematopoietic & Lymphoid tumors, EC50 (μM) HL-60): 0.518 µM
EC50 ([10]; JM1, read-out: Haematopoietic & Lymphoid tumors, EC50 (μM) JM1): 0.095 µM
EC50 ([10]; JeKo-1, read-out: Haematopoietic & Lymphoid tumors, EC50 (μM) JeKo-1): 0.081 µM
EC50 ([10]; Jurkat, read-out: Haematopoietic & Lymphoid tumors, EC50 (μM) JURKAT, Clone E6-1): 0.412 µM
EC50 ([10]; Kasumi 1, read-out: Haematopoietic & Lymphoid tumors, EC50 (μM) KASUMI-1): 0.156 µM
EC50 ([10]; MOLT-4, read-out: Haematopoietic & Lymphoid tumors, EC50 (μM) MOLT-4): 0.302 µM
EC50 ([10]; MV4-11, read-out: Haematopoietic & Lymphoid tumors, EC50 (μM) MV-4-11): 0.082 µM
EC50 ([10]; Rec1, read-out: Haematopoietic & Lymphoid tumors, EC50 (μM) REC-1): 0.075 µM
EC50 ([10]; SU-DHL-4, read-out: Haematopoietic & Lymphoid tumors, EC50 (μM) SUDHL4): 0.335 µM
EC50 ([10]; TF-1, read-out: Haematopoietic & Lymphoid tumors, EC50 (μM) TF-1): 0.386 µM
EC50 ([10]; Toledo, read-out: Haematopoietic & Lymphoid tumors, EC50 (μM) TOLEDO): 0.101 µM
EC50 ([10]; read-out: Haematopoietic & Lymphoid tumors, EC50 (μM) Loucy): 0.155 µM
EC50 ([11]; HepG2, read-out: Liver cancer, EC50 HEPG2): 309 nM
EC50 ([11]; PLC-PRF-5, read-out: Liver cancer, EC50 PLC/PRF/5): 465 nM
EC50 ([11]; SNU-398, read-out: Liver cancer, EC50 SNU398): 62 nM
EC50 ([12]; A-427, read-out: Lung cancer, EC50 (μM) A427): 0.277 µM
EC50 ([12]; HCC78, read-out: Lung cancer, EC50 (μM) HCC-78): 0.326 µM
EC50 ([12]; NCI-H460, read-out: Lung cancer, EC50 (μM) NCI-H460): 0.261 µM
EC50 ([12]; NCI-H522, read-out: Lung cancer, EC50 (μM) NCI-H522): 0.133 µM
EC50 ([13]; OV-90, read-out: Ovarian cancer, EC50 (μM) OV-90): 0.456 µM
EC50 ([13]; OVCAR-3, read-out: Ovarian cancer, EC50 (μM) OVCAR-3): 0.113 µM
EC50 ([13]; PA-1, read-out: Ovarian cancer, EC50 (μM) PA1): 0.172 µM
EC50 ([13]; TOV112D, read-out: Ovarian cancer, EC50 (μM) TOV-112D): 0.152 µM
EC50 ([14]; BXPC-3, read-out: Pancreatic cancer, EC50 BxPC3): 420 nM
EC50 ([14]; CAPAN-1, read-out: Pancreatic cancer, EC50 Capan1): 343 nM
EC50 ([14]; Capan-2, read-out: Pancreatic cancer, EC50 Capan2): 415 nM
EC50 ([14]; MIA PaCa-2, read-out: Pancreatic cancer, EC50 MIA PaCa-2): 131 nM
EC50 ([14]; PANC-1, read-out: Pancreatic cancer, EC50 PANC-1): 294 nM
EC50 ([14]; Panc 05.04, read-out: Pancreatic cancer, EC50 PANC 05.04): 340 nM
EC50 ([14]; read-out: Pancreatic cancer, EC50 UPAFII): 153 nM
EC50 ([15]; 22Rv1, read-out: Prostate cancer EC50 22Rv1): 191 nM
EC50 ([15]; DU-145, read-out: Prostate cancer EC50 Du-145): 377 nM
EC50 ([15]; LNCaP-Clone-FGC, read-out: Prostate cancer EC50 LNCap clone FGC): 329 nM
EC50 ([15]; PC-3, read-out: Prostate cancer EC50 PC3): 237 nM
EC50 ([15]; VCaP, read-out: Prostate cancer EC50 VCaP (Sigma)): 462 nM
